Source: patent publication US5138035A, “Cyclopeptide derivatives usable as selective inhibitors with respect to proteases with active serine” (Centre National de la Recherche Scientifique, priority 1988, dated 1992)
*1 amine or outer side, *2 acyl side, *3 side chain or, on linkers, in order; H or OH if unused. Where a SMILES comes first, the peptide text is derived from it. [ ]: non-standard residue; d: D form. X3 = O=C(c1cc(N[*:1])ccc1CBr)[*:2]

Tests used:
Assay type in all cases: biochemical
elastase = elastase (Sus scrofa, UniProt P00772); test: Action on elastase (Examples 2 and 4); details: species not given
elastase, sequence (P00772 27-266): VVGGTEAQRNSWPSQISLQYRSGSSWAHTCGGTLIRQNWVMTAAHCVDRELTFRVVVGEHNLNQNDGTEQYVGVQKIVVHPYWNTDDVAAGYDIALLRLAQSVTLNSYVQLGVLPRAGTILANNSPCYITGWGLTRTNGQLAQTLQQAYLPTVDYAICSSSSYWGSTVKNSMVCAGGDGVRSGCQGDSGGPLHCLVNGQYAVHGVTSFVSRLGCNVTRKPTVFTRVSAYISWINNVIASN

bovine trypsin = molecular target: T1, bovine trypsin (Bos taurus, UniProt P00760); test: Inactivation of bovine trypsin (Hart and O'Brien / Kitz and Wilson kinetic methods); details: 25° C., 0.1M Tris, 0.01M CaCl2, pH 7.2 (Example 14), method a (Hart and O'Brien) or b (Kitz and Wilson)
T1 sequence (P00760 24-246): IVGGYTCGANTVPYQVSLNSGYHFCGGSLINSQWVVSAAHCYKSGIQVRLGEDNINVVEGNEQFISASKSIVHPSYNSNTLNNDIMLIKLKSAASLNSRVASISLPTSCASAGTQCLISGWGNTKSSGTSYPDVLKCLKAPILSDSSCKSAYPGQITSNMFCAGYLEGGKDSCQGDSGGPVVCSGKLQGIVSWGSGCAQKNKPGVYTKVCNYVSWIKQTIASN
Text: (§1) The properties of the cyclopeptide derivative of formula (XVI) are checked and in particular its capacity to inactivate bovine trypsin or human urokinase using the methods of Kitz and Wilson (for trypsin and urokinase) and the method of Hart and O'Brien (for trypsin), 1973, published in Biochemistry, 12, pp. 2940-2945.
(§2) The properties of the cyclopeptide derivative of formula (XXIII) are checked and in particular its capacity to inactivate bovine trypsin or human urokinase using the same methods as in Example 2 and working at 25° C. with the 0.025M sodium phosphate buffer, 0.1M NaCl, 0.05% (v/v) Tween 80 and at pH 7.5 for human urokinase.
(§3) The kinetic measurements were carried out at 25° C. in the following buffers: 0.1M Tris, 0.01M CaCl2, pH 7.2 (bovine trypsin); 0.025M sodium phosphate, 0.1M NaCl, 0.05% (v/v) Tween 80, pH 7.5 (human urokinase); 0.05M Tris, 0.038M NaCl, 0.01% (v/v) Tween 80, pH 8.3 (human t-PA), 0.1M Tris (porcine pancreatic elastase), 0.1M sodium phosphate, 25% (v/v) glycerol (human plasmin). […]

human t-PA = human t-PA (Homo sapiens, UniProt P00750); test: Inactivation of human t-PA; details: 25° C., 0.05M Tris, 0.038M NaCl, 0.01% (v/v) Tween 80, pH 8.3, method b
human t-PA, sequence (P00750 36-562): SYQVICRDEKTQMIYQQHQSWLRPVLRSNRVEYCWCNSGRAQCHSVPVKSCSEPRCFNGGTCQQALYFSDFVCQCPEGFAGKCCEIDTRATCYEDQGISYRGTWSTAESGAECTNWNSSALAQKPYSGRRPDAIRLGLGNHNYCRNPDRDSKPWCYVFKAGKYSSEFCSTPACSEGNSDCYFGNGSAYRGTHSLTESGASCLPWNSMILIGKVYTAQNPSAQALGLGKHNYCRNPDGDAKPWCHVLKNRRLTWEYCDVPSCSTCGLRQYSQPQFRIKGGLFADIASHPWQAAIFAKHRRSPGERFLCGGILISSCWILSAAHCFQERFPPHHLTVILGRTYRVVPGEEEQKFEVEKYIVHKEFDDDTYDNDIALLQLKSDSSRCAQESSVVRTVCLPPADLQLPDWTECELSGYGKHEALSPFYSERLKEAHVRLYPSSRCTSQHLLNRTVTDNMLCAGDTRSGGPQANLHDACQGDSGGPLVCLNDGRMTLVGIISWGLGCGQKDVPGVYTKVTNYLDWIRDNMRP
Experimental: The inactivating or inhibiting properties of this derivative with respect to human t-PA are checked at 25° C. in a 0.05M Tris buffer, 0.038M NaCl, 0.01% (v/v) Tween 80 and pH 8.3.

human urokinase = human urokinase (Homo sapiens, UniProt P00749); test: Inactivation of human urokinase (Kitz and Wilson / Hart and O'Brien kinetic methods); details: 25° C., 0.025M sodium phosphate, 0.1M NaCl, 0.05% (v/v) Tween 80, pH 7.5, method a and/or b
Text: as §1, §2, §3

action on elastase (elastase): no action | apparent inactivation constant ki/Ki (bovine trypsin): 150 M⁻¹ s⁻¹ | apparent inactivation constant ki/Ki (human t-PA): 0.3 M⁻¹ s⁻¹ | apparent inactivation constant ki/Ki (human urokinase): 165 M⁻¹ s⁻¹
SMILES: N=C(N)NCCC[C@@H]1NC(=O)CNC(=O)CNC(=O)CNC(=O)CNC(=O)c2cc(ccc2CBr)NC1=O [Compound (XXIII)] (cyclo(GGGGR[X3]))
